Measured values as given in patent US11214803B2, “Modulators of YAP1 expression” (Ionis Pharmaceuticals, Inc., priority 2019, dated 2022).
Strand notation (5' to 3'): a small letter for the sugar, then the base; units joined by * are phosphorothioate-linked, units joined directly phosphodiester-linked; [ ] holds rarer units or linkages, { } end groups; capitals alone tell only the bases. k = constrained ethyl (cEt); [5mC] = 5-methylcytosine; d = 2'-deoxy (DNA)

Tested on: Yap1 mRNA
Assay: Antisense inhibition of human Yap1 in A-431 cells by cEt gapmers, single dose (Example 2, RTS4814)
Assay type: cell-based
Details: A-431 cells, 5,000 cells per well, free uptake, 2,000 nM modified oligonucleotide, approx. 48 hours, RTS4814, normalized to RIBOGREEN; Table 4; asterisk (*) = targets amplicon region of primer probe set
In short: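 Yap1 mRNA levels, by real-time RT-PCR (RTS4814) and corrected for total RNA via RIBOGREEN, are given as percent of untreated cells. Gapmers (16-mer, cEt wings, phosphorothioate, 5-methylC) were delivered without transfection at 2,000 nM to A-431 cells for about 48 hours.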

| Substance | YAP1 (% UTC) |
| --- | --- |
| 716361 (kG*kG*kT*dT*dG*dA*dG*dG*d[5mC]*dG*dG*d[5mC]*dG*kG*k[5mC]*kT; antisense) [Compound 716361] | 75 % UTC |
| 716376 (k[5mC]*kG*kA*dA*dG*dA*dT*dG*d[5mC]*dT*dG*dA*dG*k[5mC]*kT*kG; antisense) [Compound 716376] | 35 % UTC |

Same assay, conditions: Table 5; A-431 cells, 5,000 cells per well, free uptake, 2,000 nM modified oligonucleotide, approx. 48 hours; RTS4814; normalized to RIBOGREEN; Yap1 mRNA relative to untreated control cells

| Substance | YAP1 (% UTC) |
| --- | --- |
| 716422 (kA*kG*kT*dA*dT*d[5mC]*dT*dT*dG*d[5mC]*dT*dG*dG*kA*k[5mC]*kG; antisense) [Compound 716422] | 39 % UTC |
| 716347 (kT*kG*k[5mC]*d[5mC]*dT*dT*dT*d[5mC]*d[5mC]*d[5mC]*d[5mC]*dG*d[5mC]*k[5mC]*kT*k[5mC]; antisense) [Compound 716347] | 85 % UTC |
| 716497 (kA*kG*k[5mC]*dA*dG*d[5mC]*dT*dT*dT*dT*dG*d[5mC]*d[5mC]*kA*kG*kG; antisense) [Compound 716497] | 65 % UTC |

Same assay, conditions: Table 6; A-431 cells, 5,000 cells per well, free uptake, 2,000 nM modified oligonucleotide, approx. 48 hours; RTS4814; normalized to RIBOGREEN; Yap1 mRNA relative to untreated control cells

| Substance | YAP1 (% UTC) |
| --- | --- |
| 716441 (kG*k[5mC]*k[5mC]*dT*dT*dG*dG*dT*dT*dT*d[5mC]*dA*dG*k[5mC]*kT*kA; antisense) [Compound 716441] | 57 % UTC |
| 716468 (kT*k[5mC]*kA*dT*d[5mC]*dA*dG*dA*dT*dA*dA*dT*dA*kT*k[5mC]*kT; antisense) [Compound 716468] | 118 % UTC |
| 716558 (k[5mC]*kT*k[5mC]*dT*dT*dA*d[5mC]*dA*dT*d[5mC]*dT*dA*dA*kA*kA*k[5mC]; antisense) [Compound 716558] | 81 % UTC |
| 716555 (kT*kA*k[5mC]*dT*dT*dT*dT*dT*d[5mC]*dA*dA*dG*dA*kT*kA*k[5mC]; antisense) [Compound 716555] | 99 % UTC |

Same assay, conditions: Table 7 (gapmers targeting SEQ ID NO: 3 and 4); A-431 cells, free uptake, 2,000 nM, approximately 48 hours, RTS4814

| Substance | YAP1 (% UTC) |
| --- | --- |
| 716562 (kG*k[5mC]*k[5mC]*dT*dG*d[5mC]*d[5mC]*dG*dA*dA*dG*d[5mC]*dA*kG*kT*kT) [Compound 716562] | 103 % UTC |

Same assay, conditions: Table 18; A-431 cells, 5,000 cells per well, free uptake, 2,000 nM modified oligonucleotide, approx. 48 hours; RTS4814; normalized to RIBOGREEN; Yap1 mRNA as percent of untreated control

| Substance | YAP1 (% UTC) |
| --- | --- |
| 1074788 (kT*k[5mC]*kA*dA*d[5mC]*d[5mC]*dA*dT*dA*dA*dG*dT*dA*kG*kA*kT; antisense) [Compound 1074788] | 25 % UTC |
| 1074340 (antisense kT*k[5mC]*k[5mC]*d[5mC]*dG*dG*dG*dA*dG*dA*dA*dG*dA*k[5mC]*kA*k[5mC]) [Compound 1074340] | 120 % UTC |
| 1074404 (antisense kG*kG*k[5mC]*dT*dT*dA*dT*dG*dG*dA*dA*dA*dT*kT*kT*k[5mC]) [Compound 1074404] | 16 % UTC |
| 1075524 (kT*kA*kA*dT*dT*dA*dA*dG*dG*dG*d[5mC]*d[5mC]*d[5mC]*kA*k[5mC]*kA; antisense) [Compound 1075524] | 71 % UTC |
| 1076356 (k[5mC]*kA*kT*dA*dA*dT*dT*dG*dG*dA*d[5mC]*dT*dG*kT*k[5mC]*kT; antisense) [Compound 1076356] | 99 % UTC |
| 1075684 (kT*k[5mC]*kT*dG*dA*dA*dA*dA*dA*dG*dT*dT*dA*kT*kG*k[5mC]; antisense) [Compound 1075684] | 78 % UTC |

Same assay, conditions: Table 19; A-431 cells, 5,000 cells per well, free uptake, 2,000 nM modified oligonucleotide, approx. 48 hours; RTS4814; normalized to RIBOGREEN; Yap1 mRNA as percent of untreated control

| Substance | YAP1 (% UTC) |
| --- | --- |
| 1076389 (kA*kT*k[5mC]*dG*dA*dA*dA*dT*dA*dT*dT*d[5mC]*dG*kA*kG*kA; antisense) [Compound 1076389] | 76 % UTC |
| 1075653 (k[5mC]*kA*kT*dA*dA*dA*d[5mC]*dT*d[5mC]*dT*dG*d[5mC]*dT*kG*kT*k[5mC]; antisense) [Compound 1075653] | 58 % UTC |
| 1075717 (k[5mC]*kA*kT*dA*dA*dA*dT*dT*dT*d[5mC]*dA*dG*d[5mC]*k[5mC]*kG*kA; antisense) [Compound 1075717] | 10 % UTC |

Same assay, conditions: Table 20; Yap1 mRNA, percent of untreated control; 3-10-3 cEt gapmers targeting SEQ ID NO.: 1 and 2

| Substance | YAP1 (% UTC) |
| --- | --- |
| 1075846 (kG*kA*kT*dT*dA*dA*dG*dA*dG*d[5mC]*d[5mC]*dT*dA*kT*k[5mC]*kT; antisense) [Compound 1075846] | 96 % UTC |
| 1074982 (antisense kA*k[5mC]*k[5mC]*dT*dT*dT*dT*dA*dT*dT*dG*d[5mC]*d[5mC]*kA*kG*kT) [Compound 1074982] | 13 % UTC |
| 1075622 (kT*k[5mC]*kT*dT*dA*dT*dA*d[5mC]*d[5mC]*dT*dA*dT*d[5mC]*kT*kT*k[5mC]; antisense) [Compound 1075622] | 56 % UTC |
| 1075558 (kA*kT*kA*dT*dT*dA*dA*dG*dG*dT*dG*dG*d[5mC]*kT*kT*kA; antisense) [Compound 1075558] | 51 % UTC |
| 1074502 (kA*kA*k[5mC]*dT*dA*d[5mC]*dA*dA*dT*dA*dA*d[5mC]*d[5mC]*kA*kT*k[5mC]; antisense) [Compound 1074502] | 31 % UTC |
| 1075046 (antisense kA*kA*kA*dA*dT*dT*dA*dG*dA*d[5mC]*dT*d[5mC]*d[5mC]*k[5mC]*k[5mC]*k[5mC]) [Compound 1075046] | 12 % UTC |
| 1075334 (kT*kT*kA*dA*dT*dA*dA*dT*d[5mC]*dT*dA*d[5mC]*d[5mC]*kA*kG*kT; antisense) [Compound 1075334] | 60 % UTC |

Same assay, conditions: Table 21; Yap1 mRNA, percent of untreated control; 3-10-3 cEt gapmers targeting SEQ ID NO.: 1 and 2

| Substance | YAP1 (% UTC) |
| --- | --- |
| 1076167 (kA*kA*kA*dT*dT*dT*dA*d[5mC]*dA*d[5mC]*d[5mC]*dA*d[5mC]*k[5mC]*kG*k[5mC]; antisense) [Compound 1076167] | 33 % UTC |
| 1074247 (antisense kA*kT*k[5mC]*dG*dA*dT*dG*dT*dG*dA*dT*dT*dT*kA*kA*kG) [Compound 1074247] | 43 % UTC |
| 1076519 (antisense kA*k[5mC]*kA*d[5mC]*dA*dA*d[5mC]*dA*d[5mC]*dG*dA*d[5mC]*dA*kG*k[5mC]*kA) [Compound 1076519] | 31 % UTC |
| 1074343 (antisense kA*kG*kA*d[5mC]*dA*dT*d[5mC]*d[5mC]*d[5mC]*dG*dG*dG*dA*kG*kA*kA) [Compound 1074343] | 18 % UTC |

Same assay, conditions: Table 22; Yap1 mRNA as percent of untreated control; 3-10-3 cEt gapmers; single dose

| Substance | YAP1 (% UTC) |
| --- | --- |
| 1074472 (kA*kA*k[5mC]*d[5mC]*d[5mC]*d[5mC]*d[5mC]*d[5mC]*d[5mC]*dA*d[5mC]*d[5mC]*dG*kA*k[5mC]*k[5mC]; antisense) [Compound 1074472] | 107 % UTC |
| 1075880 (kA*kT*kT*dA*dA*d[5mC]*dT*dA*d[5mC]*dA*d[5mC]*d[5mC]*dA*k[5mC]*kG*kA; antisense) [Compound 1075880] | 30 % UTC |

Same assay, conditions: Table 23; Yap1 mRNA as percent of untreated control; 3-10-3 cEt gapmers; single dose

| Substance | YAP1 (% UTC) |
| --- | --- |
| 1075209 (antisense k[5mC]*kA*kT*d[5mC]*dA*dA*d[5mC]*dA*dA*dT*dG*dG*dT*k[5mC]*kT*kA) [Compound 1075209] | 11 % UTC |

Same assay, conditions: Table 24; Yap1 mRNA as percent of untreated control; 3-10-3 cEt gapmers targeting SEQ ID NO.: 1, and 2

| Substance | YAP1 (% UTC) |
| --- | --- |
| 1074826 (kA*kA*kA*dT*d[5mC]*d[5mC]*dA*d[5mC]*d[5mC]*dT*dG*dA*dG*k[5mC]*kA*k[5mC]; antisense) [Compound 1074826] | 51 % UTC |

Same assay, conditions: Table 25; Yap1 mRNA as percent of untreated control; 3-10-3 cEt gapmers targeting SEQ ID NO.: 1, and 2

| Substance | YAP1 (% UTC) |
| --- | --- |
| 1076395 (kG*kT*kA*dA*d[5mC]*dT*dA*dA*d[5mC]*d[5mC]*dT*dA*dA*kG*kG*kA; antisense) [Compound 1076395] | 34 % UTC |
| 1075787 (k[5mC]*kT*kT*dA*dA*dG*dG*dA*dT*dT*dG*dG*d[5mC]*kT*kA*kT; antisense) [Compound 1075787] | 28 % UTC |
| 1076075 (kA*k[5mC]*kA*d[5mC]*dA*dA*dG*dG*dG*dT*dT*dG*d[5mC]*kT*kA*kA; antisense) [Compound 1076075] | 38 % UTC |

Same assay, conditions: Table 32; Yap1 mRNA, percent of untreated control; 3-10-3 cEt gapmers targeting SEQ ID NO.: 1, and 2

| Substance | YAP1 (% UTC) |
| --- | --- |
| 1074258 (antisense kA*kT*kA*dT*dT*d[5mC]*dT*dG*d[5mC]*dT*dG*d[5mC]*dA*k[5mC]*kT*kG) [compound 1074258] | 36 % UTC |
| 1074706 (antisense kT*kT*kA*dA*dT*dG*dG*d[5mC]*dA*dG*d[5mC]*dA*d[5mC]*kG*kG*kT) [compound 1074706] | 48 % UTC |
| 1076178 (k[5mC]*k[5mC]*kT*dG*dA*dA*dA*dT*dA*d[5mC]*dA*dG*dG*kT*kG*kT; antisense) [compound 1076178] | 100 % UTC |
| 1076242 (kA*kT*kG*d[5mC]*dA*dA*dT*dA*dA*dG*dG*dA*dA*k[5mC]*kA*kG; antisense) [compound 1076242] | 33 % UTC |
| 1076274 (kT*kG*kA*dG*dA*dA*dT*dA*dG*dA*dG*d[5mC]*dA*kG*kG*kT; antisense) [compound 1076274] | 9 % UTC |

Same assay, conditions: Table 33; Yap1 mRNA, percent of untreated control; 3-10-3 cEt gapmers targeting SEQ ID NO.: 1, and 2

| Substance | YAP1 (% UTC) |
| --- | --- |
| 1075443 (antisense kG*kA*kT*dT*dA*dA*d[5mC]*dA*dG*dA*dG*d[5mC]*dT*kA*kG*kA) [compound 1075443] | 29 % UTC |

Same assay, conditions: Yap1 mRNA as percent of untreated control; A-431 cells; 3-10-3 cEt gapmers targeting SEQ ID NO.: 1, and 2; Table 31

| Substance | YAP1 (% UTC) |
| --- | --- |
| 1076305 (kT*kA*k[5mC]*dT*dA*dA*dT*dA*dA*dG*d[5mC]*d[5mC]*dT*k[5mC]*kA*k[5mC]; antisense) [compound 1076305] | 37 % UTC |
| 1075505 (kG*k[5mC]*kT*dA*dA*dA*dT*dT*dA*d[5mC]*dA*dG*dA*kG*kG*kT; antisense) [compound 1075505] | 18 % UTC |
